In US10233188B2, “CDK2/4/6 inhibitors” (priority 2016, dated 2019) one finds Ki data, which are given here for 23 compounds.

In one experiment the target is CDK2/Cyclin E1 (Homo sapiens (Human), UniProt P24941). The experiment is described as follows: biochemical. The note with it: CDK2_Ki (nM), phosphorylated CDK2/Cyclin E1, 150 μM ATP, Morrison tight-binding fit.
The target of another experiment is CDK6/Cyclin D1 (Homo sapiens (Human), UniProt Q00534). In words: biochemical. The note with it: CDK6_Ki (nM), non-phosphorylated CDK6/Cyclin D1, 2 mM ATP, Morrison fit.

Broadly, the Ki is a measure of affinity in units of concentration, obtained from inhibition or displacement. Read a low Ki as higher affinity.

Molecules are shown by their SMILES.

Sequence of CDK6/Cyclin D1 (Q00534 whole entry): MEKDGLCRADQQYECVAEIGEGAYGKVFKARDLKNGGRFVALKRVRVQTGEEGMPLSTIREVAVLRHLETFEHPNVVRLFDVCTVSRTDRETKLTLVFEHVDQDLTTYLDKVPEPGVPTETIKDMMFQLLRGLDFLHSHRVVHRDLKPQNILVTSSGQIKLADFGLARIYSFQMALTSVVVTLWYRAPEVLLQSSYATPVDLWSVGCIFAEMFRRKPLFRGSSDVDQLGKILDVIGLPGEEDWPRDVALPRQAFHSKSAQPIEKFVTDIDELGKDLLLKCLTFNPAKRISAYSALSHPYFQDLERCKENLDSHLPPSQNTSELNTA
Sequence of CDK6/Cyclin D1 (P24385 whole entry partner): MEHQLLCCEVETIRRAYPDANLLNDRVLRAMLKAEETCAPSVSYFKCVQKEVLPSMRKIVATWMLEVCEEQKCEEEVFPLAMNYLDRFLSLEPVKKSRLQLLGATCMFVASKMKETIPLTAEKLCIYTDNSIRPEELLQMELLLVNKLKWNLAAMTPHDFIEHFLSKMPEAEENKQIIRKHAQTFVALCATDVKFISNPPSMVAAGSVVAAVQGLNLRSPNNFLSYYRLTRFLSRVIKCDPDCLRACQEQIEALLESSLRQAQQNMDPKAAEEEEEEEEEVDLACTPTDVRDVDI
Method for CDK2/Cyclin E1: The assay was initiated with the addition of ATP, following a fifteen minutes pre-incubation of enzyme and inhibitor at room temperature in the reaction mixture. The reaction was stopped after 45 minutes at room temperature by the addition of 50 μL of 80 mM EDTA, pH 7.5.

Turning to `Cc1cc2cnc(NC3CCN(S(=O)(=O)CC4CC4)CC3)nc2n([C@@H]2CCC[C@@]2(C)O)c1=O` (single isomer, unassigned) [Example 116, (−)-2-({1-[(cyclopropylmethyl)sulfonyl]piperidin-4-yl}amino)-8-[(1R*,2R*)-2-hydroxy-2-methylcyclopentyl]-6-methylpyrido[2,3-d]pyrimidin-7(8H)-one], the Ki at CDK2/Cyclin E1 came out at 0.15 nM; at CDK6/Cyclin D1 it was 0.21 nM.
For `COCCS(=O)(=O)N1CCC(Nc2ncc3ccc(=O)n([C@@H]4CCC[C@@H]4C)c3n2)CC1` [Example 52, 2-({1-[(2-methoxyethyl)sulfonyl]piperidin-4-yl}amino)-8-[(1R,2S)-2-methylcyclopentyl]pyrido[2,3-d]pyrimidin-7(8H)-one], the inhibitory constant (Ki) was 0.12 nM at CDK2/Cyclin E1 and 0.24 nM on CDK6/Cyclin D1.
On to `Cn1cnc(S(=O)(=O)N2CCC(Nc3ncc4ccc(=O)n([C@H]5CCC[C@]5(C)O)c4n3)CC2)c1` (single isomer, unassigned) [Example 85, (+)-8-[(1R*,2R*)-2-hydroxy-2-methylcyclopentyl]-2-({1-[(1-methyl-1H-imidazol-4-yl)sulfonyl]piperidin-4-yl}amino)pyrido[2,3-d]pyrimidin-7(8H)-one], for which the inhibitory constant (Ki) on CDK2/Cyclin E1 was 1.98 nM; on CDK6/Cyclin D1 it was 8.29 nM.
With `COC(C)(C)CNS(=O)(=O)N1CCC(Nc2ncc3ccc(=O)n([C@@H]4CCC[C@@]4(C)O)c3n2)CC1` (single isomer, unassigned) [Example 60, (−)-4-({8-[(1R*,2R*)-2-hydroxy-2-methylcyclopentyl]-7-oxo-7,8-dihydropyrido[2,3-d]pyrimidin-2-yl}amino)-N-(2-methoxy-2-methylpropyl)piperidine-1-sulfonamide], the Ki on CDK2/Cyclin E1 was 0.48 nM; on CDK6/Cyclin D1 it was 3.18 nM.
Turning to `C[C@]1(O)CCC[C@@H]1n1c(=O)ccc2cnc(NC3CCN(S(=O)(=O)NC4CCOCC4)CC3)nc21` (single isomer, unassigned) [Example 69, (+)-4-({8-[(1R*,2R*)-2-hydroxy-2-methylcyclopentyl]-7-oxo-7,8-dihydropyrido[2,3-d]pyrimidin-2-yl}amino)-N-(tetrahydro-2H-pyran-4-yl)piperidine-1-sulfonamide], the Ki came to 4.48 nM on CDK2/Cyclin E1 and 22.2 nM at CDK6/Cyclin D1.
Taken in the same sequence, the figures for `CC(F)(F)CNS(=O)(=O)N1CCC(Nc2ncc3ccc(=O)n([C@@H]4CCC[C@@]4(C)O)c3n2)CC1` (single isomer, unassigned) [Example 66, (−)-N-(2,2-difluoropropyl)-4-({8-[(1R*,2R*)-2-hydroxy-2-methylcyclopentyl]-7-oxo-7,8-dihydropyrido[2,3-d]pyrimidin-2-yl}amino)piperidine-1-sulfonamide] were 0.21 nM and 2.47 nM.
Taken in the same sequence, the figures for `CS(=O)(=O)N1CCC(Nc2ncc3cc(C(F)(F)C(=O)O)c(=O)n(C4CCCC4)c3n2)CC1` [Example 31, (8-cyclopentyl-2-{[1-(methylsulfonyl)piperidin-4-yl]amino}-7-oxo-7,8-dihydropyrido[2,3-d]pyrimidin-6-yl)(difluoro)acetic acid] were 2.43 nM and 0.87 nM.
In the case of `CNS(=O)(=O)N1CCC(Nc2ncc3ccc(=O)n([C@@H]4C[C@@H](O)CC[C@H]4F)c3n2)CC1` (single isomer, unassigned) [Example 220, (−)-4-({8-[(1S*,2S*,5R*)-2-fluoro-5-hydroxycyclohexyl]-7-oxo-7,8-dihydropyrido[2,3-d]pyrimidin-2-yl}amino)-N-methylpiperidine-1-sulfonamide], the inhibitory constant (Ki) turned out to be 7.46 nM at CDK2/Cyclin E1 and 18.3 nM at CDK6/Cyclin D1.
Taken in the same sequence, the figures for `C[C@@]1(O)CCC[C@H]1n1c(=O)c(Cl)cc2cnc(N[C@H]3CCN(S(C)(=O)=O)C[C@H]3F)nc21` (single isomer, unassigned) [Example 191, (−)-6-chloro-2-{[(3R*,4S*)-3-fluoro-1-(methylsulfonyl)piperidin-4-yl]amino}-8-[(1R,2R)-2-hydroxy-2-methylcyclopentyl]pyrido[2,3-d]pyrimidin-7(8H)-one] were 0.4 nM and 0.58 nM.
`Cc1cc2cnc(NC3CCN(S(C)(=O)=O)CC3)nc2n([C@H]2C[C@@H](O)C[C@H]2C)c1=O` (single isomer, unassigned) [Example 200, (+)-8-[(1R*,2S*,4R*)-4-hydroxy-2-methylcyclopentyl]-6-methyl-2-{[1-(methylsulfonyl)piperidin-4-yl]amino}pyrido[2,3-d]pyrimidin-7(8H)-one]: the Ki on CDK2/Cyclin E1 was found to be 9.51 nM; on CDK6/Cyclin D1, 4.72 nM.
Take `CNS(=O)(=O)N1CCC(Nc2ncc3cc(Cl)c(=O)n([C@H]4CCC[C@]4(C)O)c3n2)CC1` (single isomer, unassigned) [Example 127, (+)-4-({6-chloro-8-[(1R*,2R*)-2-hydroxy-2-methylcyclopentyl]-7-oxo-7,8-dihydropyrido[2,3-d]pyrimidin-2-yl}amino)-N-methylpiperidine-1-sulfonamide]: the inhibition constant (Ki) at CDK2/Cyclin E1 came out at 3.46 nM; on CDK6/Cyclin D1, 12.6 nM.
For the compound `C[C@@H]1CCC[C@@H]1n1c(=O)c(CCO)cc2cnc(NC3CCN(S(C)(=O)=O)CC3)nc21` [Example 41, 6-(2-hydroxyethyl)-8-[(1S,2R)-2-methylcyclopentyl]-2-{[1-(methylsulfonyl)piperidin-4-yl]amino}pyrido[2,3-d]pyrimidin-7(8H)-one], the Ki at CDK2/Cyclin E1 is 0.48 nM; on CDK6/Cyclin D1, 0.36 nM.
Regarding `C[C@@]1(O)CCC[C@H]1n1c(=O)c(Cl)cc2cnc(NC3CCN(S(N)(=O)=O)CC3)nc21` (single isomer, unassigned) [Example 128, (−)-4-({6-chloro-8-[(1R*,2R*)-2-hydroxy-2-methylcyclopentyl]-7-oxo-7,8-dihydropyrido[2,3-d]pyrimidin-2-yl}amino)piperidine-1-sulfonamide], the Ki at CDK2/Cyclin E1 came to 0.12 nM; at CDK6/Cyclin D1 it was 0.53 nM.
Taken in the same sequence, the figures for `C[C@@]1(O)CCC[C@H]1n1c(=O)ccc2cnc(NC3CCN(S(=O)(=O)C4CC4)CC3)nc21` (single isomer, unassigned) [Example 74, (−)-2-{[1-(cyclopropylsulfonyl)piperidin-4-yl]amino}-8-[(1R*,2R*)-2-hydroxy-2-methylcyclopentyl]pyrido[2,3-d]pyrimidin-7(8H)-one] were 0.2 nM and 1.01 nM.
Take `CS(=O)(=O)N1CC[C@H](Nc2ncc3cc(N)c(=O)n(C4CCCC4)c3n2)[C@H](F)C1` (single isomer, unassigned; isomer b) [Example 150, 6-amino-8-cyclopentyl-2-{[(3R*,4S*)-3-fluoro-1-(methylsulfonyl)piperidin-4-yl]amino}pyrido[2,3-d]pyrimidin-7(8H)-one-Isomer B]: the Ki was 2.63 nM on CDK2/Cyclin E1 and 1.32 nM on CDK6/Cyclin D1.
Regarding `Cc1cc2cnc(NC3CCN(S(=O)(=O)CC(F)(F)F)CC3)nc2n([C@H]2CCC[C@]2(C)O)c1=O` (single isomer, unassigned) [Example 119, (+)-8-[(1R*,2R*)-2-hydroxy-2-methylcyclopentyl]-6-methyl-2-({1-[(2,2,2-trifluoroethyl)sulfonyl]piperidin-4-yl}amino)pyrido[2,3-d]pyrimidin-7(8H)-one], the Ki at CDK2/Cyclin E1 is 2.87 nM; at CDK6/Cyclin D1, 4.15 nM.
For `C[C@@]1(O)CCC[C@H]1n1c(=O)c(F)cc2cnc(NC3CCN(S(C)(=O)=O)CC3)nc21` (single isomer, unassigned) [Example 5, (+)-6-fluoro-8-[(1R*,2R*)-2-hydroxy-2-methylcyclopentyl]-2-{[1-(methylsulfonyl)piperidin-4-yl]amino}pyrido[2,3-d]pyrimidin-7(8H)-one], the Ki at CDK2/Cyclin E1 came out at 4.75 nM; on CDK6/Cyclin D1 it was 13.1 nM.
Consider `COCCS(=O)(=O)N1CCC(Nc2ncc3cc(C)c(=O)n([C@@H]4CCC[C@@]4(C)O)c3n2)CC1` (single isomer, unassigned) [Example 114, (−)-8-[(1R*,2R*)-2-hydroxy-2-methylcyclopentyl]-2-({1-[(2-methoxyethyl)sulfonyl]piperidin-4-yl}amino)-6-methylpyrido[2,3-d]pyrimidin-7(8H)-one], for which the Ki at CDK2/Cyclin E1 worked out at 0.17 nM; at CDK6/Cyclin D1, 0.15 nM.
With `CS(=O)(=O)N1CCC(Nc2ncc3ccc(=O)n([C@H]4CC[C@H](O)C4)c3n2)CC1` (single isomer, unassigned) [Example 53, (+)-8-[(1R*,3R*)-3-hydroxycyclopentyl]-2-{[1-(methylsulfonyl)piperidin-4-yl]amino}pyrido[2,3-d]pyrimidin-7(8H)-one], the inhibition constant (Ki) on CDK2/Cyclin E1 was 1.09 nM; on CDK6/Cyclin D1 it was 3.79 nM.
Take `C[C@@]1(O)CCC[C@H]1n1c(=O)ccc2cnc(NC3CCN(S(=O)(=O)c4nncs4)CC3)nc21` (single isomer, unassigned) [Example 80, (−)-8-[(1R*,2R*)-2-hydroxy-2-methylcyclopentyl]-2-{[1-(1,3,4-thiadiazol-2-ylsulfonyl)piperidin-4-yl]amino}pyrido[2,3-d]pyrimidin-7(8H)-one]: the inhibitory constant (Ki) on CDK2/Cyclin E1 amounted to 0.25 nM; at CDK6/Cyclin D1, 1.53 nM.
Taken in the same sequence, the figures for `CC(C)S(=O)(=O)N1CCC(Nc2ncc3cc(CCO)c(=O)n(C4CCCC4)c3n2)CC1` [Example 136, 8-cyclopentyl-6-(2-hydroxyethyl)-2-{[1-(propan-2-ylsulfonyl)piperidin-4-yl]amino}pyrido[2,3-d]pyrimidin-7(8H)-one] were 3.14 nM and 1.35 nM.
On to `Cc1cc2cnc(NC3CCN(S(C)(=O)=O)CC3)nc2n([C@@H]2COC[C@@]2(C)O)c1=O` (single isomer, unassigned) [Example 197, (−)-8-[(3R*,4S*)-4-hydroxy-4-methyltetrahydrofuran-3-yl]-6-methyl-2-{[1-(methylsulfonyl)piperidin-4-yl]amino}pyrido[2,3-d]pyrimidin-7(8H)-one], for which the Ki on CDK2/Cyclin E1 turned out to be 4.26 nM; at CDK6/Cyclin D1 it was 4.78 nM.
For `C[C@@]1(O)CCC[C@H]1n1c(=O)c(CO)cc2cnc(NC3CCN(S(C)(=O)=O)CC3)nc21` (single isomer, unassigned) [Example 185, (−)-6-(hydroxymethyl)-8-[(1R*,2R*)-2-hydroxy-2-methylcyclopentyl]-2-{[1-(methylsulfonyl)piperidin-4-yl]amino}pyrido[2,3-d]pyrimidin-7(8H)-one], the results for the Ki on CDK2/Cyclin E1 and on CDK6/Cyclin D1 were 0.43 nM and 0.38 nM, respectively.
